Biological target: T1, human FOXO1 (constitutively active form Thr24Ala, Ser256Ala, Ser319Ala) (Homo sapiens, UniProt Q12778, S256A/S319A/T24A)
T1 construct: expressed in transfected cells; host or cells: HEK293 cells transfected with pcDNA3.1 plasmid
Assay: FOXO1 inhibitor activity assay: cell-based transcriptional (luciferase) reporter assay in HEK293 cells
Conditions: HEK293 cells transfected with insulin response element firefly luciferase reporter, FOXO1 and Renilla luciferase; 10-point dose response 50 μM to 2.5 nM; 24 hours
Experimental: The inhibitory activities of compounds on FOXO1 were determined by a cell-based transcriptional reporter assay. HEK293 cells were plated onto either 384-well poly-D-lysine coated plates (at 7500 cells per well) or 96-well plates (at 20000 cells per well) in low glucose Eagle's Minimum Essential Medium (EMEM) containing 1% fetal bovine serum, and incubated overnight at 37° C. and 5% CO2. […] Duplicate wells were included for each treatment condition. Cells were incubated for 24 hours at 37° C. and 5% CO2. Luciferase activities in each well were measured using Dual-Glog Luciferase Assay System (Promega) according to manufacturer's protocol and an Envision plate reader suitable for luminescence detection. Firefly luciferase activity was divided by Renilla luciferase activity to calculate a ratio for each well. The ratio in wells containing cells transfected with all 3 plasmids listed above and receiving only DMSO without compound addition was set to 100%. The ratio in wells containing cells transfected with plasmid (1), plasmid (3), and pcDNA3.1 containing the open reading frame of red fluorescent protein (instead of human FOXO1) and treated with DMSO was set to 0%. The ratio in each well receiving compound treatment was normalized and expressed as a percentage. Data were fit by 4-parameter logistic regression to determine IC50 and maximal inhibition values. Each compound was tested in a minimum of 2 independent experiments.

T1 sequence (Q12778 whole entry T24A/S256A/S319A): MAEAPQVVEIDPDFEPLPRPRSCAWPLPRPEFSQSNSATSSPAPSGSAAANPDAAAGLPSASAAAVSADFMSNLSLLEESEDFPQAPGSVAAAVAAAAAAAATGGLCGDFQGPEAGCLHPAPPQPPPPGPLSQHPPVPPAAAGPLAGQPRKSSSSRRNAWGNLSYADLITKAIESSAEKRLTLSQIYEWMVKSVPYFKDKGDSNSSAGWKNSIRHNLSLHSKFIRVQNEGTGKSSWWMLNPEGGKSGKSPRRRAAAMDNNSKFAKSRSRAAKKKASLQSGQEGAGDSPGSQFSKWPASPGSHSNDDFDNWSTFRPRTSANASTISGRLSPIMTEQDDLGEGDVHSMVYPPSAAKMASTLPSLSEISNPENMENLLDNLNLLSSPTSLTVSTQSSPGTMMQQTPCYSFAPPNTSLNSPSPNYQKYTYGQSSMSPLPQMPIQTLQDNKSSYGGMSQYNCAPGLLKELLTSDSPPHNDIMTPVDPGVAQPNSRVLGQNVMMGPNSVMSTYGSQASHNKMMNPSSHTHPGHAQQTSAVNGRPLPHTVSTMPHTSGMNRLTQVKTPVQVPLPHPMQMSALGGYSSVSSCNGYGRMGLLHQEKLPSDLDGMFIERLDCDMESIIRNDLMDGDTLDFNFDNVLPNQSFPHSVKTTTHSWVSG

| Structure (SMILES) | IC50 [nM] |
| --- | --- |
| COc1ccc(Nc2nccc(-c3nc4ccccc4[nH]3)n2)cc1Cl [Compound A-92, 4-(1H-benzimidazol-2-yl)-N-(3-chloro-4-methoxy-phenyl)pyrimidin-2-amine] | > 1000 |
| COCCSc1ccc(C(=O)Nc2cc(-c3nc4ccccc4[nH]3)[nH]n2)cc1Cl [Compound A-93, N-[5-(1H-benzimidazol-2-yl)-1H-pyrazol-3-yl]-3-chloro-4-(2-methoxyethylsulfanyl)benzamide] | < 100 |
| COCCOc1ccc(C(=O)Nc2cc(-c3nc4ccccc4[nH]3)[nH]n2)cc1C [Compound A-94, N-[5-(1H-benzimidazol-2-yl)-1H-pyrazol-3-yl]-4-(2-methoxyethoxy)-3-methyl-benzamide] | < 100 |
| Cn1nc(NC(=O)c2ccc(N3CCOCC3)cc2)cc1-c1nc2ccccc2[nH]1 [Compound A-95, N-[5-(1H-benzimidazol-2-yl)-1-methyl-pyrazol-3-yl]-4-morpholino-benzamide] | 100 to 300 |
| Cn1nc(NC(=O)c2ccc(N3CCC(CO)CC3)nc2)cc1-c1nc2ccccc2[nH]1 [Compound A-96, N-[5-(1H-benzimidazol-2-yl)-1-methyl-pyrazol-3-yl]-6-[4-(hydroxy-methyl)-1-piperidyl]pyridine-3-carboxamide] | < 100 |
| COC1CN(c2ccc(C(=O)Nc3cc(-c4nc5ccccc5[nH]4)n(C)n3)cn2)C1 [Compound A-97, N-[5-(1H-benzimidazol-2-yl)-1-methyl-pyrazol-3-yl]-6-(3-methoxyazetidin-1-yl)pyridine-3-carboxamide] | 100 to 300 |
| Cc1ccc2[nH]c(-c3cc(NC(=O)c4ccc(N5CCC(CO)CC5)nc4)n[nH]3)nc2c1 [Compound A-98, 6-[4-(hydroxymethyl)-1-piperidyl]-N-[5-(5-methyl-1H-benzimidazol-2-yl)-1H-pyrazol-3-yl]pyridine-3-carboxamide] | < 100 |
| Cc1ccc2[nH]c(-c3cc(NC(=O)c4ccc(N5CCC(O)CC5)nc4)n[nH]3)nc2c1 [Compound A-99, 6-(4-hydroxy-1-piperidyl)-N-[5-(5-methyl-1H-benzimidazol-2-yl)-1H-pyrazol-3-yl]pyridine-3-carboxamide] | 100 to 300 |
| Cc1ccc2[nH]c(-c3cc(NC(=O)c4ccc(N5CCOCC5)nc4)n[nH]3)nc2c1 [Compound A-100, N-[5-(5-methyl-1H-benzimidazol-2-yl)-1H-pyrazol-3-yl]-6-morpholino-pyridine-3-carboxamide] | 100 to 300 |
| O=C(Nc1cc(-c2nc3cc(C(F)(F)F)ccc3[nH]2)[nH]n1)c1ccc(N2CCC(CO)CC2)nc1 [Compound A-101, 6-[4-(hydroxymethyl)-1-piperidyl]-N-[5-[5-(trifluoromethyl)-1H-benzimidazol-2-yl]-1H-pyrazol-3-yl]pyridine-3-carboxamide] | > 1000 |
| O=C(Nc1cc(-c2nc3cc(C(F)(F)F)ccc3[nH]2)[nH]n1)c1ccc(N2CCOCC2)nc1 [Compound A-102, 6-morpholino-N-[5-[5-(trifluoromethyl)-1H-benzimidazol-2-yl]-1H-pyrazol-3-yl]pyridine-3-carboxamide] | > 1000 |
| COCCOc1ccc(C(=O)Nc2cc(-c3nc4ccccc4[nH]3)[nH]n2)cc1F [Compound A-103, N-[5-(1H-benzimidazol-2-yl)-1H-pyrazol-3-yl]-3-fluoro-4-(2-methoxy-ethoxy)benzamide] | < 100 |
| COCCOc1ccc(C(=O)Nc2cc(-c3nc4ccccc4[nH]3)[nH]n2)cc1C(F)(F)F [Compound A-104, N-[5-(1H-benzimidazol-2-yl)-1H-pyrazol-3-yl]-4-(2-methoxyethoxy)-3-(trifluoromethyl)benzamide] | < 100 |
| O=C(Nc1cc(-c2nc3cc(C(F)(F)F)ccc3[nH]2)[nH]n1)c1ccc(N2CCC(O)CC2)nc1 [Compound A-105, 6-(4-hydroxy-1-piperidyl)-N-[5-[5-(trifluoromethyl)-1H-benzimidazol-2-yl]-1H-pyrazol-3-yl]pyridine-3-carboxamide] | > 1000 |
| COc1ccc(C(=O)Nc2cc(-c3nc4ccc(OC)c(F)c4[nH]3)[nH]n2)cc1Cl [Compound A-106, 3-chloro-N-[5-(7-fluoro-6-methoxy-1H-benzimidazol-2-yl)-1H-pyrazol-3-yl]-4-methoxy-benzamide] | 100 to 300 |
| O=C(Nc1cc(-c2nc3cc(OC(F)(F)F)ccc3[nH]2)[nH]n1)c1ccc(N2CCOCC2)nc1 [Compound A-107, 6-morpholino-N-[5-[5-(trifluoromethoxy)-1H-benzimidazol-2-yl]-1H-pyrazol-3-yl]pyridine-3-carboxamide] | > 1000 |
| O=C(Nc1cc(-c2nc3cc(OC(F)(F)F)ccc3[nH]2)[nH]n1)c1ccc(N2CCC(O)CC2)nc1 [Compound A-108, 6-(4-hydroxy-1-piperidyl)-N-[5-[5-(trifluoromethoxy)-1H-benzimidazol-2-yl]-1H-pyrazol-3-yl]pyridine-3-carboxamide] | > 1000 |
| COc1ccc2[nH]c(-c3cc(NC(=O)c4ccc(N5CCC(CO)CC5)nc4)n[nH]3)nc2c1 [Compound A-109, 6-[4-(hydroxymethyl)-1-piperidyl]-N-[5-(5-methoxy-1H-benzimidazol-2-yl)-1H-pyrazol-3-yl]pyridine-3-carboxamide] | < 100 |
| COc1ccc2[nH]c(-c3cc(NC(=O)c4ccc(N5CCOCC5)nc4)n[nH]3)nc2c1 [Compound A-111, N-[5-(5-methoxy-1H-benzimidazol-2-yl)-1H-pyrazol-3-yl]-6-morpholino-pyridine-3-carboxamide] | > 1000 |
| COc1ccc(C(=O)Nc2cc(-c3cn4ccccc4n3)[nH]n2)cc1Cl [Compound A-112, 3-chloro-N-(5-imidazo[1,2-a]pyridin-2-yl-1H-pyrazol-3-yl)-4-methoxy-benzamide] | 300 to 1000 |
| Cc1cc(C(=O)Nc2cc(-c3nc4ccccc4[nH]3)[nH]n2)ccc1OCCO [Compound A-113, N-[5-(1H-benzimidazol-2-yl)-1H-pyrazol-3-yl]-4-(2-hydroxyethoxy)-3-methyl-benzamide] | < 100 |

Other lines, results leading:

| IC50 [nM] | Structure (SMILES) |
| --- | --- |
| > 1000 | O=C(Nc1cc(-c2nc3cc(OC(F)(F)F)ccc3[nH]2)[nH]n1)c1ccc(N2CCC(CO)CC2)nc1 [Compound A-114, 6-[4-(hydroxymethyl)-1-piperidyl]-N-[5-[5-(trifluoromethoxy)-1H-benzimidazol-2-yl]-1H-pyrazol-3-yl]pyridine-3-carboxamide] |
| < 100 | Cc1ccc2[nH]c(-c3cc(NC(=O)c4ccc(OCCO)c(Cl)c4)n[nH]3)nc2c1 [Compound A-115, 3-chloro-4-(2-hydroxyethoxy)-N-[5-(5-methyl-1H-benzimidazol-2-yl)-1H-pyrazol-3-yl]benzamide] |
| 100 to 300 | O=C(Nc1cc(-c2nc3cc(OC(F)(F)F)ccc3[nH]2)[nH]n1)c1ccc(OCCO)c(Cl)c1 [Compound A-116, 3-chloro-4-(2-hydroxyethoxy)-N-[5-[5-(trifluoromethoxy)-1H-benzimidazol-2-yl]-1H-pyrazol-3-yl]benzamide] |
| < 100 | COc1ccc2[nH]c(-c3cc(NC(=O)c4ccc(OCCO)c(Cl)c4)n[nH]3)nc2c1 [Compound A-117, 3-chloro-4-(2-hydroxyethoxy)-N-[5-(5-methoxy-1H-benzimidazol-2-yl)-1H-pyrazol-3-yl]benzamide formic acid] |
| 300 to 1000 | O=C(Nc1cc(-c2nc3cc(Br)ccc3[nH]2)[nH]n1)c1ccc(OCCO)c(Cl)c1 [Compound A-118, N-[5-(5-bromo-1H-benzimidazol-2-yl)-1H-pyrazol-3-yl]-3-chloro-4-(2-hydroxyethoxy)benzamide] |
| 100 to 300 | O=C(Nc1cc(-c2nc3cccc(F)c3[nH]2)[nH]n1)c1ccc(OCCO)c(Cl)c1 [Compound A-119, 3-chloro-N-[5-(7-fluoro-1H-benzimidazol-2-yl)-1H-pyrazol-3-yl]-4-(2-hydroxyethoxy)benzamide] |
| 300 to 1000 | COc1cc(C(=O)Nc2cc(-c3nc4ccccc4[nH]3)[nH]n2)ccc1OCCO [Compound A-120, N-[5-(1H-benzimidazol-2-yl)-1H-pyrazol-3-yl]-4-(2-hydroxyethoxy)-3-methoxy-benzamide] |
| 100 to 300 | O=C(Nc1cc(-c2nc3cc(Cl)ccc3[nH]2)[nH]n1)c1ccc(OCCO)c(Cl)c1 [Compound A-121, 3-chloro-N-[5-(5-chloro-1H-benzimidazol-2-yl)-1H-pyrazol-3-yl]-4-(2-hydroxyethoxy)benzamide] |
| < 100 | O=C(Nc1cc(-c2nc3cc(C(F)(F)F)ccc3[nH]2)[nH]n1)c1ccc(OCCO)c(Cl)c1 [Compound A-123, 3-chloro-4-(2-hydroxyethoxy)-N-[5-[5-(trifluoromethyl)-1H-benzimidazol-2-yl]-1H-pyrazol-3-yl]benzamide formic acid] |
| < 100 | COc1ccc(C(=O)Nc2cc(-c3nc4ccccc4[nH]3)[nH]n2)cc1F [Compound A-124, N-[5-(1H-benzimidazol-2-yl)-1H-pyrazol-3-yl]-3-fluoro-4-methoxy-benzamide] |
| 100 to 300 | COc1ccc(C(=O)Nc2cc(-c3nc4cccc(F)c4[nH]3)n(C)n2)cc1Cl [Compound A-125, 3-chloro-N-[5-(7-fluoro-1H-benzimidazol-2-yl)-1-methyl-pyrazol-3-yl]-4-methoxy-benzamide] |
